How the values were obtained:
[1] = instrument: DT, stepped-field
[2] = instrument: DT, single field, calibrated with Agilent tune mix (Agilent)
[3] = instrument: DT, stepped-field; remark: listed apart in the source

collision cross section (N2) ([1]; [M+2Na-H]+) [Å²]	collision cross section (N2) ([3]; [M+H]+) [Å²]	collision cross section (N2) ([3]; [M+Na]+) [Å²]	collision cross section (N2) ([2]; [M+H]+) [Å²]	SMILES	other results
	157.51	168.97	157.4	Cc1cn([C@@H]2O[C@H](CO)[C@@H](O)[C@H]2O)c(=O)nc1N [5-Methylcytidine]	collision cross section (N2) ([2]; [M-H]-): 152.63 Å²
		160.36	147.3	CC(=O)N[C@H]1C(O)O[C@H](CO)[C@@H](O)[C@@H]1O (stereo partly drawn) [N-Acetyl-D-glucosamine]	
	139.03	149.63		CC(=O)N[C@@H](CCC(=O)O)C(=O)O [N-Acetyl-L-glutamate]	collision cross section (N2) ([2]; [M+Na-2H]-): 141 Å²
		181.14		OC[C@H]1O[C@H](OC[C@H]2OC(O)[C@H](O)[C@@H](O)[C@@H]2O)[C@H](O)[C@@H](O)[C@H]1O (stereo partly specified) [Melibiose]	collision cross section (N2) ([2]; [M+Na]+): 176.8 Å²
		140.79		OC[C@@H](O)C(O)[C@@H](O)CO (stereo partly specified) [Xylitol]	collision cross section (N2) ([2]; [M+Na]+): 135.3 Å²; collision cross section (N2) ([2]; [M-H]-): 122.4 Å²
	154.16	164.45	150.4	O=C(O)CCCC[C@@H]1SC[C@@H]2NC(=O)N[C@@H]21 [D-Biotin]	collision cross section (N2) ([2]; [M-H]-): 152.96 Å²
		141.82		OC[C@H]1OC(O)[C@@H](O)[C@@H](O)[C@@H]1O (stereo partly drawn) [D-Mannose]	collision cross section (N2) ([2]; [M+Na]+): 140.8 Å²
		179.19		OC[C@H]1O[C@H](O[C@H]2[C@H](O)[C@@H](O)[C@H](O)O[C@@H]2CO)[C@H](O)[C@@H](O)[C@@H]1O [D-Maltose]	collision cross section (N2) ([2]; [M+K-2H]-): 175.19 Å²; collision cross section (N2) ([2]; [M+Na]+): 178.1 Å²

Continued, compound first:

SMILES	collision cross section (N2) ([1]; [M+2Na-H]+) [Å²]	collision cross section (N2) ([3]; [M+H]+) [Å²]	collision cross section (N2) ([3]; [M+Na]+) [Å²]	collision cross section (N2) ([2]; [M+H]+) [Å²]	other results
CC/C=C\C/C=C\C/C=C\C/C=C\C/C=C\CCCC(=O)OC[C@H](COP(=O)(O)OC[C@H](N)C(=O)O)OC(=O)CCCCC/C=C\C/C=C\C/C=C\C/C=C\CCCCC [PS(42:09)]	292.63				collision cross section (N2) ([1]; [M+K]+): 294.57 Å²; collision cross section (N2) ([1]; [M-H]-): 290.63 Å²
CCCCC/C=C\C/C=C\C/C=C\C/C=C\CCCCCC(=O)O[C@H](COC(=O)CCCC/C=C\C/C=C\C/C=C\CCCCC)COP(=O)(O)OCCN [PE(40:07)]	286.07				
CC/C=C\C/C=C\C/C=C\C/C=C\CCCCC(=O)OC[C@H](COP(=O)(O)OCCN)OC(=O)CCCCCCCCC/C=C\C/C=C\CCCCC [PE(38:06)]	281				collision cross section (N2) ([1]; [M-H]-): 273.81 Å²
CCCCCC/C=C/CCCCCCCCCC(=O)O[C@H](COC(=O)CCCCCCCCCCCCCCC)COP(=O)([O-])OCC[N+](C)(C)C [PC(34:01)]	283.9				collision cross section (N2) ([1]; [M+Cl]-): 290.47 Å²; collision cross section (N2) ([1]; [M+HCOO]-): 290.79 Å²; collision cross section (N2) ([1]; [M+H]+): 281.97 Å²; collision cross section (N2) ([1]; [M+K]+): 285.76 Å²; collision cross section (N2) ([1]; [M+Na]+): 284.83 Å²
CCCCC/C=C\C/C=C\CCCCCCCCCC(=O)O[C@H](COC(=O)CCCCCCC/C=C\CCCCCCCC)COP(=O)(O)OCCN [PE(38:03)]	286.46				collision cross section (N2) ([1]; [M-H]-): 277.01 Å²
CCCCCC/C=C\CCCCCCCC(=O)OC[C@H](COP(=O)(O)OCCN)OC(=O)CCCCCCCCC/C=C\CCCCCCCC [PE(36:02)]	281.26				collision cross section (N2) ([1]; [M+H]+): 275.13 Å²; collision cross section (N2) ([1]; [M+K]+): 280.72 Å²; collision cross section (N2) ([1]; [M+Na]+): 279.88 Å²; collision cross section (N2) ([1]; [M-H]-): 272.07 Å²
C=CC1=C(C)C(/C=c2\[nH]/c(=C\c3[nH]c(/C=C4\NC(=O)C(C)=C4C=C)c(C)c3CCC(=O)O)c(CCC(=O)O)c2C)=NC1=O [Biliverdin]		246.5	248.83		collision cross section (N2) ([2]; [M+Na]+): 246.7 Å²; collision cross section (N2) ([2]; [M-H]-): 242.04 Å²
NCCCCN=C(N)N [Agmatine]		129.96		128.2	
CN1c2c([nH]c(N)nc2=O)NCC1CNc1ccc(C(=O)N[C@H](CCC(=O)O)C(=O)O)cc1 (stereo partly specified) [5-Methyltetrahydrofolate]		196.99	200.04	196.4	collision cross section (N2) ([2]; [M+Na-2H]-): 201.03 Å²
CC(=O)[C@H]1CC[C@H]2[C@@H]3CCC4=CC(=O)CC[C@]4(C)[C@H]3CC[C@]12C [Progesterone]		186.73	169.03	181.2	collision cross section (N2) ([2]; [M-H]-): 182.13 Å²

— the C3SDB collision cross section collection
